Reference: patent publication US10967023B2, “Preparation of a chinese medicinal composition including ginseng, ginkgo leaf and stigma croci” (priority 2014, dated 2021)

Tests used:
thrombosis of rats = experiment: Artery-vein shunt thrombosis in rats (thrombus formation in vivo); parameters: species or system SD rats; conditions: compositions 3 g/kg, aspirin 0.0044 g/kg
Protocol: (§1) The same volume of saline was given to the Blank control group. The rats were administered once a day for 7 days.
Experiments of thrombus formation, in vivo: 1 h after 7 days of administration, the rats of the groups were hypnotized through intraperitoneal injection with 0.8% sodium pentobarbital, with a dose of 40 mg/kg referring to the artery-vein shunt thrombosis method [Zhang Jun Tian. Modern pharmacology experimental methods. Beijing: Beijing Medical University Press, 1998; 1216-1217], right common carotid artery and left external jugular vein were separated. Three sections of polyethylene plastic pipe were taken, the diameter of the middle section was 2 mm, the length was about 8.5 cm, the diameter of the two plastic pipe of the two ends were 1.5 mm, the length were 10 cm respectively. A No 4 operation silk thread that was weighed previously with a length of about 7 cm was placed in the plastic pipe in the middle section, wherein one end of the thread with the length of 0.5 cm was exposed to the pipe to fix the position, and a silk thread with a length of 6.5 cm was kept in the pipe, the polyethylene plastic pipe was filled with heparin solution, one end of the plastic tube was inserted into the left external jugular vein, the other end of the plastic tube was inserted into the right common carotid artery, then the bloodstream was opened immediately. […]

[1] = test system: ADP induced platelet aggregation of rats; experiment: Platelet aggregation inhibition test (ADP induced, PRP of dosed rats); assay type: in vivo, SD rats; conditions: ADP 5 μmol/L
Protocol: as §1
Platelet aggregation inhibition test: 1 h after 7 days of administration to the rats of the groups, the rats were hypnotized according to the above method, a tube was inserted into the common carotid artery to collect blood, the blood was added 3.8% sodium citrate in a ratio of 1:9 to become anticoagulant, when it was centrifuged for 5 minutes at 500 rpm, the upper portion of the plasma was taken to be the platelet-rich plasma (PRP), the remaining part was centrifuged again for 15 minutes at 3,500 rpm, the supernatant was platelet poor plasma (the PPP), the number of platelet of PRP was counted with platelet counting instrument, the number of platelet of PRP was adjusted with PPP to about […]. The temperature of the sample tube was kept at 37° C. for 3 minutes, then 5 μL ADP was added (final concentration 5 μmol/L), stirring speed of the stirrer was 500 r/min, the space between the rows of the movement of the recording pen was recorded after adding, and the aggregation rate was calculated according to the following formula: Aggregation rate(%)=the itinerary of adding ADP×100%/0˜100% of the itinerary

VaD rats = experiment: MORRIS water maze in VaD rats (permanent ligation of bilateral common carotid artery); assay type: in vivo, SD rats
Protocol: (§2) The sham group and the model group were given gavages of distilled water of the same volume. 2 months, 3 months after the models were created (1 month and 2 months after the administration), the time of the duration of MORRIS water maze were measured. After the last measurement, blood was taken from abdomens aorta, the brain was taken quickly, and the left hemisphere was solidified with liquid nitrogen. In ice bath, with 0.15M HCLO4 homogenates (1 ml was added for 100 mg brain weight) 14000×g 4° C., centrifuged for 20 min, the supernatant was taken, filtered with 0.22 μm membrane, 10 μl was fed into the auto sampler, the content of Ach was determined using HPLC; right hemisphere, 4 for each group, were solidified with formalin, dehydrated, embedded, sliced, HE dyed for pathological examination, homogenates of six brain tissue, AchE, SOD activity and MDA content (colorimetric method) were measured; Indicators such as neuropeptide Y, β-EP in plasma were determined (RIA). The results were analyzed statistically (t test).

SOD, MDA of brain tissue = experiment: Activity of SOD and content of MDA in the brains of VaD rats; assay type: in vivo, SD rats; conditions: 2 months of administration, compositions 3 g/kg, Huperzine 0.00006 g/kg, Tanakan 0.02 g/kg
Protocol: as §2

[2] = test system: hippocampal pyramidal cell; experiment: Pathological examination of hippocampus of VaD rats (HE); assay type: in vivo, SD rats; conditions: 2 months of administration
Protocol: as §2

[3] = test system: reserpine induced acquired memory disorder model mice; experiment: Reserpine induced acquired memory disorder model mice, jumping platform test; assay type: in vivo, ICR mice; conditions: reserpine 0.5 mg/kg mice; compositions 4 g/kg, Huperzine 0.00008 g/kg, Tanakan 0.03 g/kg, 15 days
Protocol: (§3) Experimental grouping was the same as that of test example 5.
The animals were intragastric administered once a day at a dose of 20 mL/kg, distilled water was given to the blank control group and the model group, one time a day, lasted for 15 days. After the administration on the 14th day, saline was given immediately to the mice of the blank control group through back and neck subcutaneous injection in a volume of 10 ml/kg, the rest animals were given reserpine hydrochloride (0.5 mg/kg) through back and neck subcutaneous injection. 60 minutes after the injection, the mice were placed on the jumping program automatic controller, to adapt for 3 minutes, then power on, the mice were stimulated by electric shock for 5 times, when the mice were stimulated, they jump to the diving platform to avoid electric shock, trained 5 minutes to obtain memory. 60 minutes after the administration on the 15th day, the animals were placed on the jumping program automatic controller, the number of errors and the incubation period of mice within 5 minutes were determined. The results were analyzed statistically (t test).

plasma NPY, β-EP = experiment: Plasma NPY, β-EP of VaD rats (RIA); assay type: in vivo, SD rats; conditions: 2 months of administration, compositions 3 g/kg, Huperzine 0.00006 g/kg, Tanakan 0.02 g/kg
Protocol: as §2

[4] = test system: scopolamine hydrobromide induced acquired memory disorder model mice; experiment: Scopolamine hydrobromide induced acquired memory disorder model mice, jumping platform test; assay type: in vivo, ICR mice; conditions: scopolamine 6 mg/kg mice; compositions 4 g/kg, Huperzine 0.00008 g/kg, Tanakan 0.03 g/kg, 15 days
Protocol: The animals were intragastric administered once a day at a dose of 20 mL/kg, distilled water was given to blank control group and model group, one time a day, lasted for 15 days, 50 minutes after the administration on the 14th day, saline was given to the mice of blank control group through intraperitoneal injection in a volume of 10 ml/kg, the rest animals were given scopolamine through injection (6 mg/kg). 10 minutes later, the mice were placed on the jumping program automatic controller, to adapt for 3 minutes, then power on, the mice were stimulated by electric shock for 5 times, when the mice were stimulated, they jump to the diving platform to avoid electric shock, trained 5 minutes to obtain memory. 60 minutes after the administration on the 15th day, the animals were placed on the jumping program automatic controller, the number of times that the mice left the jump platform and received electric shock and the time of occurrence (the incubation period) were determined (number of errors). The results were analyzed statistically (t test).

[5] = test system: SOD, GSH-Px, MDA, NO of brain tissue; experiment: Activities of SOD, GSH-Px and contents of MDA, NO of brain tissue (ischemia-reperfusion + D-galactose mice); assay type: in vivo, ICR mice; conditions: 8 weeks, compositions 4 g/kg, Huperzine 0.00008 g/kg, Tanakan 0.03 g/kg
Protocol: (§4) The mice were anaesthetized with chloral hydrate, incisions were made in the necks, ischemia and reperfusion surgery was applied: bilateral common carotid arteries were separated, were clipped by bulldog clamp for 20 minutes, loosened for 2 minutes, then were clipped again for 20 minutes then loosened, at the same time, the tails of the mice were cut, 0.5 mL blood was collected, repeated cerebral ischemia-reperfusion injury was formed, sutured the wounds of the rats then fed them in cages. 7 days after the operation, D-galactose (100 mg/kg, 10 mL/kg) was given to the mice through subcutaneous injection on the back, and simultaneously, the mice were intragastric administered (20 mL/kg) once a day, lasted for 8 weeks; for the sham group, common carotid arteries were separated without clipping, the same volume of saline was injected through subcutaneous injection on the back; for D-galactose group, common carotid arteries were separated without clipping, D-galactose (100 mg/kg, 10 mL/kg) was injected through subcutaneous injection on the back; the ischemia reperfusion group was received an ischemia reperfusion operation, the same volume of saline was injected through subcutaneous injection on the back. The sham group, complex model group, D-galactose group were given gavages of distilled water of the same volume.
(§5) 8 weeks after the administration, the mice were trained for 3 days in the MRRIS water maze, two times a day, the learning and memory behavior were determined on the 4th day, on the 5th day, the heads were cut to take the brains, the brains were formulated into 10% homogenates with saline, the activities of AchE, SOD, GSH-Px, the contents of biochemical indicators such as MDA, NO in the brain tissues were determined (colorimetry). The results were analyzed statistically (t test)

[6] = test system: Ach in brains of VaD rats; experiment: Content of Ach in brains of VaD rats (HPLC); assay type: in vivo, SD rats; conditions: 2 months of administration, compositions 3 g/kg, Huperzine 0.00006 g/kg, Tanakan 0.02 g/kg
Protocol: Mobile phase: Na2HPO4 (100 mmol/L), TMACl (0.5 mmol/L), OSA (2.0 mmo/L), MB reagent (0.005% v/v), diluted with redistilled water, 85% PH was adjusted to8.00 by H3PO4, filtered by 0.22 μm aqueous membrane.
Chromatographic conditions: ESA582 type binary pump system, ESA ACH-3 column (150×3 mm 5 μm I.D.), former ESA immobilized enzyme reactor before columns (ESA ACH-SPR, 3 cm), flow rate, 0.35 mL/min, column temperature, 35° C.
Test conditions: 5600 A electrochemical detector; 5040 type solid porous electrode (platinum working electrode, a solid state palladium reference electrode) potential: +300 mV.
The results were analyzed statistically (t test).

[7] = test system: ischemic reperfusion and D-galactose induced learning and memory impairment mice; experiment: MORRIS water maze in mice with ischemic reperfusion and subcutaneous D-galactose induced learning and memory impairment; assay type: in vivo, ICR mice; conditions: 8 weeks
Protocol: as §4, §5

[8] = test system: sodium nitrite induced consolidate memory disorder mice; experiment: Sodium nitrite induced consolidate memory disorder model mice, jumping platform test; assay type: in vivo, ICR mice; conditions: sodium nitrite 120 mg/kg mice; compositions 4 g/kg, Huperzine 0.00008 g/kg, Tanakan 0.03 g/kg, 15 days
Protocol: as §3
The animals were intragastric administered once a day at a dose of 20 mL/kg, distilled water was given to the animals of blank control group and model group, one time a day, lasted for 15 days. 60 minutes after the administration on the 14th day, the mice were placed on the jumping program automatic controller, to train for 5 minutes, and the mice were stimulated by electric shock for 5 times. After the treatment, saline was given immediately to the mice of comparative group through back and neck subcutaneous injection in a volume of 10 ml/kg, sodium nitrite (120 mg/kg) were injected to the rest of the animals. 60 minutes after the administration on the 15th day, the animals of the groups were placed on the jumping program automatic controller, the number of errors and the incubation period of mice within 5 minutes were determined. The results were analyzed statistically (t test).

[9] = ischemia-reperfusion + D-galactose mice, compositions 4 g/kg, Huperzine 0.00008 g/kg, Tanakan 0.03 g/kg

Compound: CC(=O)Oc1ccccc1C(=O)O [Aspirin]
- inhibition at 4.4 mg/kg (thrombosis of rats; Rattus norvegicus, 168 h, 7 days, versus control group, read-out: Inhibition rate (thrombosis)): 30.9%
- Wet weights of thrombus (thrombosis of rats; once a day 7 days, artery-vein shunt 20 minutes): 0.056 ± 0.011 g
- Platelet aggregation ([1]; rats dosed 7 days (compositions 3 g/kg, aspirin 0.0044 g/kg), PRP): 23.27 ± 3.06 %
- aggregation inhibition rate ([1]; rats dosed 7 days, versus control group): 49.57%

Compound: C/C=C1\[C@H]2C=C(C)C[C@]1(N)c1ccc(=O)[nH]c1C2 [Huperzine, huperzine A]
- time of duration in MORRIS water maze, 2 months after the model was created (VaD rats; 1 month of administration, compositions 3 g/kg, Huperzine 0.00006 g/kg, Tanakan 0.02 g/kg): 24.6 ± 19.0 s
- time of duration in MORRIS water maze, 3 months after the model was created (VaD rats; 2 months of administration, compositions 3 g/kg, Huperzine 0.00006 g/kg, Tanakan 0.02 g/kg): 9.0 ± 5.2 s
- time of duration in MORRIS water maze, 1 month after the model was created (VaD rats; before administration): 58.6 ± 26.6 s
- MDA (SOD, MDA of brain tissue): 2.194 ± 0.251 μmol/mgprot
- SOD (SOD, MDA of brain tissue): 51.7 ± 9.6 U/mgprot
- Pathological examination: arrangement of the hippocampal pyramidal cells [2]: slightly loose
- number of errors Within 5 min [3]: 0.6 ± 0.9
- the incubation period Within 5 min [3]: 243.1 ± 38.4 s
- NPγ (plasma NPY, β-EP): 847.7 ± 189.1 pg/mL
- β-EP (plasma NPY, β-EP): 1032.9 ± 109.5 pg/mL
- number of errors Within 5 minutes [4]: 0.6 ± 0.6
- the incubation period Within 5 minutes [4]: 281.6 ± 39.4 s
- GSH-Px [5]: 28.58 ± 2.87 U/mgprot
- MDA [5]: 4.651 ± 0.832 nmol/mgprot
- NO [5]: 1.442 ± 0.295 nmol/mgprot
- SOD [5]: 159.8 ± 21.2 U/mgprot
- Ach [6]: 1992.6 ± 590.0 ng/g wet weight of brain tissue
- Length of path (MORRIS water maze) [7, 9]: 355.8 ± 234.1 cm
- Time of duration (MORRIS water maze) [7, 9]: 21.7 ± 14.6 s
- Search strategy (MORRIS water maze) ([7]; score: straight line type 1 point, tendency type 2, edge type 3, random type 4, mice): 2.4 ± 1.0 points
- The incubation time Within 5 min [8]: 229.1 ± 94.6 s
- number of errors Within 5 min [8]: 0.5 ± 0.7
